Like-named read-outs stand apart in the source and are kept apart here.
Columns and labels:
[1] = tested on: RPMI-8226; assay: NCI-60 cytotoxicity screen; type: cell-based
[2] = tested on: A549/ATCC; assay: NCI-60 cytotoxicity screen; type: cell-based
[3] = tested on: NCI-H226; assay: NCI-60 cytotoxicity screen; type: cell-based
[4] = tested on: NCI-H460; assay: NCI-60 cytotoxicity screen; type: cell-based
[5] = tested on: SF-539; assay: NCI-60 cytotoxicity screen; type: cell-based
[6] = tested on: SK-MEL-5; assay: NCI-60 cytotoxicity screen; type: cell-based
[7] = tested on: OVCAR-8; assay: NCI-60 cytotoxicity screen; type: cell-based
[8] = tested on: NCI/ADR-RES; assay: NCI-60 cytotoxicity screen; type: cell-based
[9] = tested on: TK-10; assay: NCI-60 cytotoxicity screen; type: cell-based
[10] = tested on: BT-549; assay: NCI-60 cytotoxicity screen; type: cell-based
[11] = tested on: BSY-1; assay: JFCR-39 cytotoxicity screen; type: cell-based
[12] = tested on: SF-268; assay: JFCR-39 cytotoxicity screen; type: cell-based
[13] = tested on: SF-539; assay: JFCR-39 cytotoxicity screen; type: cell-based
[14] = tested on: HCC2998; assay: JFCR-39 cytotoxicity screen; type: cell-based
[15] = tested on: KM-12; assay: JFCR-39 cytotoxicity screen; type: cell-based
[16] = tested on: OVCAR-8; assay: JFCR-39 cytotoxicity screen; type: cell-based
[17] = tested on: RXF-631L; assay: JFCR-39 cytotoxicity screen; type: cell-based
[18] = tested on: MKN1; assay: JFCR-39 cytotoxicity screen; type: cell-based
[19] = tested on: MKN45; assay: JFCR-39 cytotoxicity screen; type: cell-based
[20] = tested on: JFCR 39 human cancer cell lines; assay: JFCR-39 screen, means, ranges and selectivity over panels; type: cell-based; conditions: for GI50: Homo sapiens
Protocol: Both NSC745885 and NSC757963 satisfied the pre-determined threshold inhibition criteria of the NCI-60 One-Dose Screening, so they were tested against the panels of 60 cancer cell lines of NCI (NCI-60) and 39 cancer cell lines of JFCR (JFCR-39), each cell line was tested at five small doses of our compounds. Results are expressed as the 50% growth inhibition concentration (GI50), the 50% lethal concentration (LC50) and the total growth inhibition (TGI), compared to the values of untreated control cells.
To characterize the selectivity of NSC745885 and NSC757963 further among the different types of cancer, we determined their selectivity ratios towards each cell line subpanel used in the cytotoxicity experiments. […] The promising activity of this compound is evident from the small mean GI50 values. […] The strongest activity was towards the leukemia subpanel and the least one was towards the colon cancer subpanel. […] The strongest activity was towards the melanoma subpanel and the least one was towards the colon cancer subpanel.
All cell lines were published before.

[21] = tested on: NF-κB p65 subunit translocation in OVCAR-3 cells; assay: NF-κB inhibition by immunocytochemical fluorescent staining; type: cell-based, human; conditions: 5 μM
Protocol: Inhibition of NF-κB was detected according to Ataie-Kachoie et al.. Briefly, each group of tested cells were seeded on coverslips treated with HCl and ethanol, and autoclaved prior to use. Immunostaining of the p65 subunit of NF-κB was done by permeabilizing the cells with Triton […], then by treating the cells with anti-NF-κB p65 rabbit monoclonal primary antibody [E379] Abcam # ab32536, followed by Alexa Fluor® 488 Donkey anti-rabbit IgG secondary antibody Biolegend # 406416. Nuclei of cells were stained with 4',6-diamidino-2-phenylindole (DAPI). Images were acquired using fluorescence microscope. Tested cells were divided into five groups which are no treatment control, no primary antibody control, PDTC (50 μM) treated control, NSC745885 (5 μM) and NSC757963 (5 μM) treated controls.

[22] = tested on: OVCAR-3; conditions: five-dose
[23] = Homo sapiens, Fig 7, read-out: mean log10 of the GI50 values (converted)
[24] = Homo sapiens, five-dose, read-out: GI50
[25] = Homo sapiens, five-dose, read-out: LC50 (the source's name)
[26] = Homo sapiens, read-out: LC50 (the source's name)

O=C1c2ccccc2C(=O)c2c1ccc1nsnc21 [NSC745885, anthra[1,2-c][1,2,5]thiadiazole-6,11-dione]
GI50 [1, 23]: 1.35 µM | GI50 [1, 24]: 1.18 µM | CC50 [1, 25]: > 100 µM | TGI ([1]; five-dose): 3.46 µM | GI50 [2, 23]: 5.75 µM | GI50 [2, 24]: 14.7 µM | CC50 [2, 25]: 91 µM | TGI ([2]; five-dose): 36.6 µM | GI50 [3, 23]: 8.32 µM | LC50 (concentration killing 50% of cells) ([3]; Homo sapiens, five-dose): 63.7 µM | GI50 [3, 24]: 4.48 µM | TGI ([3]; five-dose): 21.6 µM | GI50 ([4]; Homo sapiens, NCI-460, five-dose, read-out: GI50): 3.27 µM | CC50 ([4]; Homo sapiens, NCI-460, five-dose, read-out: LC50 (the source's name)): 47.3 µM | GI50 ([4]; Homo sapiens, NCI-H460, Fig 7, read-out: mean log10 of the GI50 values (converted)): 2.45 µM | TGI ([4]; NCI-460, five-dose): 14.3 µM | GI50 [5, 23]: 1.48 µM | GI50 [5, 24]: 1.46 µM | CC50 [5, 25]: 5.91 µM | TGI ([5]; five-dose): 2.94 µM | GI50 [6, 23]: 1.35 µM | GI50 [6, 24]: 1.58 µM | CC50 [6, 25]: 5.41 µM | TGI ([6]; five-dose): 2.92 µM | GI50 [7, 23]: 1.2 µM | GI50 [7, 24]: 1.66 µM | CC50 [7, 25]: 59.8 µM | TGI ([7]; five-dose): 4.68 µM | GI50 [8, 23]: 0.891 µM | GI50 [8, 24]: 1.86 µM | CC50 [8, 25]: > 100 µM | TGI ([8]; five-dose): 12.6 µM | GI50 [9, 23]: 10 µM | GI50 [9, 24]: 2.85 µM | CC50 [9, 25]: 50.4 µM | TGI ([9]; five-dose): 10.9 µM | GI50 [10, 23]: 4.57 µM | GI50 [10, 24]: 1.63 µM | CC50 [10, 25]: 6.01 µM | TGI ([10]; five-dose): 3.13 µM | TGI [11]: 2.8 µM | GI50 ([11]; Homo sapiens): 1.4 µM | CC50 [11, 26]: 5.6 µM | TGI [12]: 3.8 µM | GI50 ([12]; Homo sapiens): 2 µM | CC50 [12, 26]: 7.1 µM | TGI [13]: 3.6 µM | GI50 ([13]; Homo sapiens): 1.9 µM | CC50 [13, 26]: 6.6 µM | TGI [14]: 3.9 µM | GI50 ([14]; Homo sapiens, HCC 2998): 2.1 µM | CC50 ([14]; Homo sapiens, HCC 2998, read-out: LC50 (the source's name)): 7.5 µM | TGI [15]: 5.4 µM | GI50 ([15]; Homo sapiens, KM12): 2.3 µM | CC50 ([15]; Homo sapiens, KM12, read-out: LC50 (the source's name)): 25 µM | TGI [16]: 4.0 µM | GI50 ([16]; Homo sapiens): 1.4 µM | CC50 [16, 26]: 18 µM | TGI [17]: 4.9 µM | GI50 ([17]; Homo sapiens): 2.3 µM | CC50 [17, 26]: 12 µM | TGI [18]: 1.5 µM | GI50 ([18]; Homo sapiens, MKN-1): 0.47 µM | CC50 ([18]; Homo sapiens, MKN-1, read-out: LC50 (the source's name)): 4.3 µM | TGI [19]: 9.8 µM | GI50 ([19]; Homo sapiens, MKN-45): 3.1 µM | CC50 ([19]; Homo sapiens, MKN-45, read-out: LC50 (the source's name)): 39 µM | selectivity ratios of the JFCR subpanels (for NSC745885 except melanoma) [20]: less than 3 | GI50 ([20]; JFCR Breast Cancer, read-out: Mean GI50 of subpanel): 1.66 µM | GI50 ([20]; JFCR CNS Cancer, read-out: Mean GI50 of subpanel): 1.87 µM | GI50 ([20]; JFCR Colon Cancer, read-out: Mean GI50 of subpanel): 5.36 µM | GI50 ([20]; JFCR Lung Cancer, read-out: Mean GI50 of subpanel): 4.13 µM | GI50 ([20]; JFCR Melanoma, read-out: Mean GI50 of subpanel): 0.86 µM | GI50 ([20]; JFCR Ovarian Cancer, read-out: Mean GI50 of subpanel): 1.63 µM | GI50 ([20]; JFCR Prostate Cancer, read-out: Mean GI50 of subpanel): 1.65 µM | GI50 ([20]; JFCR Renal Cancer, read-out: Mean GI50 of subpanel): 2.1 µM | GI50 ([20]; JFCR Stomach Cancer, read-out: Mean GI50 of subpanel): 1.71 µM | GI50 ([20]; all JFCR subpanels, read-out: mean GI50 values of the JFCR subpanels, range): 0.86 to 5.36 µM | GI50 ([20]; equivalent to MG-MID, read-out: Mean GI50 of all JFCR-39 cell line panels): 2.62 µM | GI50 ([20]; five-dose, read-out: JFCR-39 GI50 values, range over cell lines): 0.47 to 19 µM | Selectivity ratio ([20]; JFCR Breast Cancer): 1.58 | Selectivity ratio ([20]; JFCR CNS Cancer): 1.4 | Selectivity ratio ([20]; JFCR Colon Cancer): 0.49 | Selectivity ratio ([20]; JFCR Lung Cancer): 0.63 | Selectivity ratio ([20]; JFCR Melanoma): 3.04 | Selectivity ratio ([20]; JFCR Ovarian Cancer): 1.6 | Selectivity ratio ([20]; JFCR Prostate Cancer): 1.59 | Selectivity ratio ([20]; JFCR Renal Cancer): 1.25 | Selectivity ratio ([20]; JFCR Stomach Cancer): 1.53 | nuclear translocation of the NF-κB p65 subunit [21]: significantly capable of preventing the nuclear translocation of the NF-κB p65 subunit | TGI [22]: 2.46 µM

Reference: publication PMC4839570, “Novel Anthra[1,2-c][1,2,5]Thiadiazole-6,11-Diones as Promising Anticancer Lead Compounds: Biological Evaluation, Characterization & Molecular Targets Determination” (PLoS ONE, 2016)
